# Measured values: PubChem BioAssay (NCI)
#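 A five-concentration, 48-hour dose response in 96-well plates underlies each endpoint, interpolated linearly between surrounding concentrations. GI50 marks 50% less growth. The concentration for full growth arrest is given as TGI.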
# Experiments:
# Assay in all cases: inhibition of tumour cell growth, NCI panel, 48 h
# NCI-H460 lung = system: NCI-H460 lung
# DU-145 prostate = system: DU-145 prostate
# UO-31 renal = system: UO-31 renal
# T-47D breast = system: T-47D breast
# RXF 393 renal = system: RXF 393 renal
# COLO 205 colon = system: COLO 205 colon
# NCI/ADR-RES ovarian = system: NCI/ADR-RES ovarian
# HCC-2998 colon = system: HCC-2998 colon
# SNB-75 CNS = system: SNB-75 CNS
# NCI-H522 lung = system: NCI-H522 lung
# KM12 colon = system: KM12 colon
# U251 CNS = system: U251 CNS
# A549 NSCLC = system: A549 NSCLC
# ACHN renal = system: ACHN renal
# HS 578T breast = system: HS 578T breast
# SK-MEL-28 melanoma = system: SK-MEL-28 melanoma
# SF-539 CNS = system: SF-539 CNS
# K-562 leukemia = system: K-562 leukemia
# HOP-92 NSCLC = system: HOP-92 NSCLC
# UACC-257 melanoma = system: UACC-257 melanoma
# MDA-MB-435 = system: MDA-MB-435
# BT-549 breast = system: BT-549 breast
# OVCAR-5 ovarian = system: OVCAR-5 ovarian
# SK-MEL-2 melanoma = system: SK-MEL-2 melanoma
# SNB-19 CNS = system: SNB-19 CNS
# MCF7 breast = system: MCF7 breast
# NCI-H23 lung = system: NCI-H23 lung
# EKVX NSCLC = system: EKVX NSCLC
# UACC-62 melanoma = system: UACC-62 melanoma
# HT29 colon = system: HT29 colon
# OVCAR-4 ovarian = system: OVCAR-4 ovarian
# HCT-116 colon = system: HCT-116 colon
# 786-0 renal = system: 786-0 renal
# CAKI-1 renal = system: CAKI-1 renal
# HOP-62 NSCLC = system: HOP-62 NSCLC
# RPMI-8226 leukemia = system: RPMI-8226 leukemia
# SK-OV-3 ovarian = system: SK-OV-3 ovarian
# LOX IMVI melanoma = system: LOX IMVI melanoma
# SF-295 CNS = system: SF-295 CNS
# TK-10 renal = system: TK-10 renal
# HCT-15 colon = system: HCT-15 colon
# A498 renal = system: A498 renal
# MDA-MB-231 breast = system: MDA-MB-231 breast
# HL-60(TB) leukemia = system: HL-60(TB) leukemia
# SN12C renal = system: SN12C renal
# SF-268 CNS = system: SF-268 CNS
# CCRF-CEM leukemia = system: CCRF-CEM leukemia
# MALME-3M melanoma = system: MALME-3M melanoma
# IGROV1 ovarian = system: IGROV1 ovarian
# SK-MEL-5 melanoma = system: SK-MEL-5 melanoma
# OVCAR-8 ovarian = system: OVCAR-8 ovarian
# NCI-H226 lung = system: NCI-H226 lung
# PC-3 prostate = system: PC-3 prostate
# OVCAR-3 ovarian = system: OVCAR-3 ovarian
# SW-620 colon = system: SW-620 colon
# M14 melanoma = system: M14 melanoma
# MOLT-4 leukemia = system: MOLT-4 leukemia
compound,measurement,setting,value
C[C@@H]1CN(c2ccc3ncc(C#Cc4cncc(C(=O)Nc5ccc(CN6CCN(C)CC6)c(C(F)(F)F)c5)c4)n3n2)C[C@H](C)O1,GI50,NCI-H460 lung,74.9 nM
same,TGI,NCI-H460 lung,732 nM
same,GI50,DU-145 prostate,50.4 nM
same,TGI,DU-145 prostate,292 nM
same,GI50,UO-31 renal,79.8 nM
same,TGI,UO-31 renal,361 nM
same,GI50,T-47D breast,363 nM
same,TGI,T-47D breast,5360 nM
same,GI50,RXF 393 renal,30.1 nM
same,TGI,RXF 393 renal,141 nM
same,GI50,COLO 205 colon,135 nM
same,TGI,COLO 205 colon,781 nM
same,GI50,NCI/ADR-RES ovarian,445 nM
same,TGI,NCI/ADR-RES ovarian,1910 nM
same,GI50,HCC-2998 colon,153 nM
same,TGI,HCC-2998 colon,956 nM
same,GI50,SNB-75 CNS,102 nM
same,TGI,SNB-75 CNS,235 nM
same,GI50,NCI-H522 lung,33.9 nM
same,TGI,NCI-H522 lung,181 nM
same,TGI,KM12 colon,563 nM
same,GI50,U251 CNS,119 nM
same,TGI,U251 CNS,1300 nM
same,GI50,A549 NSCLC,63.6 nM
same,TGI,A549 NSCLC,410 nM
same,GI50,ACHN renal,37.5 nM
same,TGI,ACHN renal,211 nM
same,GI50,HS 578T breast,32.8 nM
same,TGI,HS 578T breast,348 nM
same,GI50,SK-MEL-28 melanoma,295 nM
same,TGI,SK-MEL-28 melanoma,1340 nM
same,GI50,SF-539 CNS,33.2 nM
same,TGI,SF-539 CNS,135 nM
same,TGI,K-562 leukemia,359 nM
same,GI50,HOP-92 NSCLC,28.8 nM
same,TGI,HOP-92 NSCLC,118 nM
same,GI50,UACC-257 melanoma,228 nM
same,TGI,UACC-257 melanoma,1410 nM
same,GI50,MDA-MB-435,86.1 nM
same,TGI,MDA-MB-435,1110 nM
same,GI50,BT-549 breast,135 nM
same,TGI,BT-549 breast,411 nM
same,GI50,OVCAR-5 ovarian,157 nM
same,TGI,OVCAR-5 ovarian,975 nM
same,GI50,SK-MEL-2 melanoma,130 nM
same,TGI,SK-MEL-2 melanoma,294 nM
same,GI50,SNB-19 CNS,325 nM
same,TGI,SNB-19 CNS,1150 nM
same,GI50,MCF7 breast,51.3 nM
same,TGI,MCF7 breast,651 nM
same,GI50,NCI-H23 lung,102 nM
same,TGI,NCI-H23 lung,322 nM
same,GI50,EKVX NSCLC,39.9 nM
same,TGI,EKVX NSCLC,300 nM
same,GI50,UACC-62 melanoma,138 nM
same,TGI,UACC-62 melanoma,1010 nM
same,GI50,HT29 colon,67.4 nM
same,TGI,HT29 colon,1100 nM
same,GI50,OVCAR-4 ovarian,123 nM
same,TGI,OVCAR-4 ovarian,1590 nM
same,GI50,HCT-116 colon,34.5 nM
same,TGI,HCT-116 colon,274 nM
same,GI50,786-0 renal,48.3 nM
same,TGI,786-0 renal,202 nM
same,GI50,CAKI-1 renal,33.9 nM
same,TGI,CAKI-1 renal,157 nM
same,GI50,HOP-62 NSCLC,121 nM
same,TGI,HOP-62 NSCLC,844 nM
same,GI50,RPMI-8226 leukemia,258 nM
same,TGI,RPMI-8226 leukemia,5640 nM
same,GI50,SK-OV-3 ovarian,216 nM
same,TGI,SK-OV-3 ovarian,736 nM
same,GI50,LOX IMVI melanoma,36.8 nM
same,TGI,LOX IMVI melanoma,144 nM
same,GI50,SF-295 CNS,214 nM
same,TGI,SF-295 CNS,1530 nM
same,GI50,TK-10 renal,68.3 nM
same,TGI,TK-10 renal,400 nM
same,GI50,HCT-15 colon,45.4 nM
same,TGI,HCT-15 colon,471 nM
same,GI50,A498 renal,118 nM
same,TGI,A498 renal,253 nM
same,GI50,MDA-MB-231 breast,32 nM
same,TGI,MDA-MB-231 breast,223 nM
same,GI50,HL-60(TB) leukemia,50.7 nM
same,TGI,HL-60(TB) leukemia,312 nM
same,GI50,SN12C renal,26.9 nM
same,TGI,SN12C renal,275 nM
same,GI50,SF-268 CNS,111 nM
same,TGI,SF-268 CNS,522 nM
same,GI50,CCRF-CEM leukemia,200 nM
same,TGI,CCRF-CEM leukemia,10300 nM
same,GI50,MALME-3M melanoma,77.8 nM
same,TGI,MALME-3M melanoma,251 nM
same,GI50,IGROV1 ovarian,34.4 nM
same,TGI,IGROV1 ovarian,201 nM
same,GI50,SK-MEL-5 melanoma,270 nM
same,TGI,SK-MEL-5 melanoma,1160 nM
same,GI50,OVCAR-8 ovarian,176 nM
same,TGI,OVCAR-8 ovarian,991 nM
same,GI50,NCI-H226 lung,33.9 nM
same,TGI,NCI-H226 lung,334 nM
same,GI50,PC-3 prostate,128 nM
same,TGI,PC-3 prostate,1810 nM
same,GI50,OVCAR-3 ovarian,98.2 nM
same,TGI,OVCAR-3 ovarian,1150 nM
same,GI50,SW-620 colon,57.7 nM
same,TGI,SW-620 colon,2450 nM
same,GI50,M14 melanoma,36.5 nM
same,TGI,M14 melanoma,322 nM
same,GI50,MOLT-4 leukemia,77.7 nM
same,TGI,MOLT-4 leukemia,529 nM
